Columns and labels:
[1] = physchem; settings: octan-1-ol/water, pH 7.4, LogD7.4
[2] = in vitro; settings: human, plasma, PPB

| logD [1] | fraction unbound at 5 h [2] | Compound |
| --- | --- | --- |
| 3.45 | 0.0594 | C[C@H](Nc1nc(Nc2ncc(C#N)s2)cc(N2CCOCC2)n1)c1ccc(F)cn1 |
| 2.99 | 0.103 | COc1cc(Nc2ncc(C)s2)nc(N[C@@H](C)c2ncc(F)cn2)n1 |
| 1.08 | 0.179 | NC(=O)c1cnc(N[C@H]2CCCNC2)c2cc(Br)sc12 |
| 3 | 0.101 | O=C1CN(C(=O)c2ccco2)C(c2ccccc2)c2cc(Cl)ccc2N1 (stereo not given) |
| 0.96 | 0.0183 | O=c1cc(O)oc2c1c(=O)n(-c1ccccc1)c1ccccc21 |
| -0.65 | 0.232 | COc1nccnc1NS(=O)(=O)c1ccc(N)cc1 |
| 1.23 | 0.563 | CNC(=O)c1snnc1-c1ccccc1 |
| 3.31 | 0.0606 | O=C1CN(C(=O)c2ccccc2)C(c2ccccc2)c2cc(Cl)ccc2N1 (stereo not given) |
| 3.2 | 0.0245 | CC(=O)c1cn(Cc2ccccc2)c(=O)n(Cc2ccc(F)cc2)c1=O |
| 3.1 | 0.0428 | O=C(CCS(=O)(=O)c1ccc(Br)cc1)NCc1ccc(F)cc1 |
| 3.1 | 0.0139 | CNC(=O)c1cc(C(=O)c2ccc(Cl)cc2)c(Br)[nH]1 |
| 4.1 | 0.0111 | Cc1cccc(-c2nc3cc(Cl)ccc3[nH]2)n1 |
| 3.02 | 0.107 | CCOc1cc2nnc(C(N)=O)c(Nc3cc(C)ccc3F)c2cc1N1CCN(C)CC1 |
| 0.44 | 0.0069 | CC[C@H]1CN(Cc2cc(Cl)ccc2OCC(=O)O)CCN1S(=O)(=O)c1ccccc1 |
| 3.9 | 0.0035 | CCN(CC)S(=O)(=O)c1ccc(-c2nnc(SCC(=O)N3CCc4ccccc43)o2)cc1 |
| 3.5 | 0.0031 | c1ccc2[nH]c(CCCc3nc4ccccc4[nH]3)nc2c1 |
| -0.28 | 0.051 | Cc1ccc(S(=O)(=O)N2N=Cc3oc(C)cc3B2O)cc1 |
| -0.84 | 0.666 | CSc1ccc(N2C(N)=NC(N)=NC2(C)C)cc1 |
| 3.11 | 0.0532 | Cc1cc(Nc2nc(N[C@@H](C)c3ccc(F)cn3)c(C#N)cc2F)n[nH]1 |
| 3.68 | 0.0447 | C[C@H]1O[C@@H](n2cnc3c(N)nc(OCC4CC45CC5)nc32)[C@H](O)[C@H]1Cl (stereo not given in full) |
| 3.47 | 0.0149 | Cc1ccc(NC(=O)c2ccnc(N3CCOCC3)c2)cc1NC(=O)c1ccc(OCc2ccccn2)cc1 |
| 0.83 | 0.465 | COc1ccc2ncc(=O)n(CCN3CCC(NCc4cc5c(cn4)OCCO5)CC3)c2n1 |
| 0.66 | 0.0418 | COc1ccc2c(c1)N(CCN1CCC(NCc3ccc4c(n3)NC(=O)CO4)CC1)C(=O)CC2 |
| 0.5 | 0.258 | COc1ccc2c(c1)N(CCN1CCC(NCc3ccc4c(n3)NC(=O)CO4)CC1)C(=O)OC2 |
| 1.31 | 0.309 | COc1ccc2ccc(=O)n(CCN3CCC(NCc4cc5c(cn4)OCCO5)CC3)c2c1 |

| logD [1] | fraction unbound at 5 h [2] | Compound |
| --- | --- | --- |
| 0.2 | 0.276 | COc1ncc2ccc(=O)n(CCN3CCC(NCc4cc5c(cn4)OCCO5)CC3)c2n1 |
| 1.16 | 0.314 | COc1ccc2ccc(=O)n(CCN3CCC(NCc4cc5c(cn4)OCCO5)CC3)c2n1 |
| 0.54 | 0.0127 | Cc1c(Sc2ccc(Cl)cc2)c2cc(S(C)(=O)=O)ccc2n1CC(=O)O |
| 0.8 | 0.454 | Cc1ccc(S(=O)(=O)Nc2c(C(=O)N[C@@H](C)C(C)(C)C)c(C)nn2C2CCN(C)CC2)cc1 |
| 0.82 | 0.661 | CN[C@@H](C)C(=O)N[C@H](C(=O)N[C@H]1CCN(C(=O)c2ccccc2)C1)C1CCCCC1 |
| 0.81 | 0.671 | CN[C@@H](C)C(=O)N[C@H](C(=O)N[C@H]1CCN(C(=O)Cc2ccccc2)C1)C1CCCCC1 |
| 0.87 | 0.552 | CN[C@@H](C)C(=O)N[C@H](C(=O)N[C@H]1CCCN(C(=O)c2ccccc2)C1)C1CCCCC1 |
| 1.1 | 0.179 | COc1cc(OC)c(S(=O)(=O)N(C)c2ccccc2)cc1NC(C)=O |
| 3.94 | 0.016 | O=C1[C@@H]2[C@@H]3CC[C@@H](C3)[C@@H]2C(=O)N1[C@H]1CC[C@H](C(=O)Nc2cccc3cccnc23)CC1 |
| 3 | 0.0007 | CCOc1ccccc1-c1ccc(-c2nc3ccncc3c(O)c2C#N)cc1 |
| 3.28 | 0.0262 | COc1ccc(-c2nc3c(NCCCNC(C)=O)c(Br)cnc3[nH]2)cc1 |
| 1 | 0.415 | O=C(c1cccc(Cc2n[nH]c(=O)c3ccccc23)c1)N1CCOCC1 |
| 1.27 | 0.0836 | COc1cccc(/C=C2\SC(=O)NC2=O)c1N1CCC[C@@H](N)C1 |
| 3.44 | 0.0191 | CC(=O)Nc1ccc2cnn(-c3cc(NC4CC4)n4ncc(C#N)c4n3)c2c1 |
| 3.3 | 0.0251 | CC(=O)Nc1ccc2c(c1)N(c1cc(NC3CC3)n3ncc(C#N)c3n1)CC2 |
| 3.09 | 0.0191 | N#Cc1cnn2c(NC3CC3)cc(-n3ccc4ccc(CO)cc43)nc12 |
| -0.34 | 0.0606 | Cc1ccc2c(c1)c(-c1ccnc3c(S(C)(=O)=O)cccc13)c(C)n2CC(=O)O |
| 0.11 | 0.208 | N#Cc1ccc2ccc(=O)n(CCN3CC[C@H](NCc4ccc5c(n4)NC(=O)CO5)[C@H](O)C3)c2c1 |
| 0.39 | 0.137 | COc1ccc2ncc(=O)n(CCN3CC[C@H](NCc4ccc5c(n4)NC(=O)CO5)[C@H](O)C3)c2c1 |
| 0.37 | 0.0532 | COc1ccc2ncc(=O)n(CCN3CC[C@@H](NCc4ccc5c(n4)NC(=O)CO5)[C@@H](O)C3)c2c1 |
| 0.32 | 0.535 | CO[C@H]1CN(CCn2c(=O)ccc3ccc(C#N)cc32)CC[C@H]1NCc1ccc2c(n1)NC(=O)CO2 |
| 1.05 | 0.16 | CO[C@H]1CN(CCn2c(=O)ccc3ccc(C#N)cc32)CC[C@@H]1NCc1cc2c(cn1)OCCO2 |
| 0.81 | 0.276 | CO[C@@H]1CN(CCn2c(=O)ccc3ccc(C#N)cc32)CC[C@H]1NCc1ccc2c(n1)NC(=O)CO2 |
| 1.25 | 0.166 | COc1ccc2ncc(=O)n(CCN3CC[C@H](NCc4cc5c(cn4)OCCO5)[C@@H](OC)C3)c2c1 |
| 0.83 | 0.244 | COc1ccc2ncc(=O)n(CCN3CC[C@@H](NCc4ccc5c(n4)NC(=O)CO5)[C@@H](F)C3)c2c1 |

| logD [1] | fraction unbound at 5 h [2] | Compound |
| --- | --- | --- |
| 1.2 | 0.236 | CC(C)(C)OC(=O)NCCCSC[C@H]1O[C@@H](n2cnc3c(N)ncnc32)[C@H](O)[C@@H]1O |
| 0.22 | 0.0268 | NC(=O)c1cncc(-c2ccc([C@H]3CC[C@H](CC(=O)O)CC3)cc2)c1 |
| 0.22 | 0.0179 | CC[C@H](c1ccc(C(=O)O)c(Oc2cccc(Cl)c2)c1)N1CCC[C@H](n2cc(C)c(=O)[nH]c2=O)C1 |
| 0.22 | 0.0383 | CC[C@@H](c1ccc(C(=O)O)c(Oc2cccc(Cl)c2)c1)N1CCC[C@H](n2cc(C)c(=O)[nH]c2=O)C1 |
| -0.51 | 0.0191 | Cc1cn([C@H]2CCCN(Cc3ccc(C(=O)O)c(Oc4cccc(Br)c4)c3)C2)c(=O)[nH]c1=O |
| -0.38 | 0.0293 | Cc1cn([C@H]2CCCN(Cc3ccc(C(=O)O)c(Oc4cccc(C(F)(F)F)c4)c3)C2)c(=O)[nH]c1=O |
| 3.14 | 0.0335 | Cc1c(Cl)ccc(OC2CCN(C[C@H](O)CNC(=O)c3c[nH]c(=O)cc3C(F)(F)F)CC2)c1Cl |
| 3.48 | 0.0647 | N#Cc1cccc(C(=O)NC[C@@H](O)CN2CCC(Oc3ccc(Cl)c(Cl)c3)CC2)c1 |
| 3.12 | 0.0032 | COc1cc(C(=O)NC[C@@H](O)CN2CCC(Oc3ccc(Cl)c(Cl)c3)CC2)ccc1N |
| -1.28 | 0.04 | Cc1cn([C@H]2CCCN(S(=O)(=O)c3ccc(C(=O)O)c(Oc4cccc(Cl)c4)c3)C2)c(=O)[nH]c1=O |
| 3.14 | 0.002 | COCCNC(=O)c1ccc(Nc2ncc3cc(-c4ccncc4OC)ccc3n2)cc1 |
| 3.04 | 0.006 | CC(=O)Nc1ccc(Nc2ncc3cc(-c4ccncc4)ccc3n2)cc1 |
| 3.34 | 0.0383 | C[C@@H](NC(=O)C1CCCCN1C)c1ccc(Nc2ncc3cc(-c4ccncc4)ccc3n2)cc1 (stereo not given in full) |
| 3.45 | 0.0191 | CC(=O)N[C@H](C)c1ccc(Nc2ncc3cc(-c4ccncc4)c(C)cc3n2)cc1 |
| 3.9 | 0.0086 | CC(C)C[C@H](CO)Nc1nc(SCc2cccc(C#N)c2)nc2nc(N)sc12 |
| 3.22 | 0.0229 | C[C@H](CO)Nc1nc(SCc2cccc(F)c2F)nc2[nH]c(N)nc12 |
| 3.12 | 0.0457 | C[C@H](CO)Nc1nc(SCc2ccccc2)nc2nc(N)sc12 |
| 0.2 | 0.0647 | COc1ccc(-c2nc(N3CCOCC3)nc(O)c2C#N)cc1 |
| 2.99 | 0.0335 | CC[C@@H](CO)Nc1nc(SCc2ccccc2)nc2nc(N)sc12 |
| 4.25 | 0.0142 | COc1ccc(OC)c(CNc2[nH]nc3ccnc(Oc4ccccc4)c23)c1 |
| 3.4 | 0.0081 | COc1cc2ncc(C(N)=O)c(Nc3ccccc3C)c2cc1OC |
| 3.23 | 0.0179 | CN1CCN(c2ccc3ncc(C(N)=O)c(Nc4ccc(Cl)cc4Cl)c3c2)CC1 |
| 0.92 | 0.349 | CN1CCN(C(=O)c2cccc(Cc3n[nH]c(=O)c4ccccc34)c2)CC1 |
| 3.3 | 0.0391 | Cc1c[nH]c(-c2cc(NC(=O)c3ccc(C(F)(F)F)nc3C)ccc2Cl)n1 |
| 3.2 | 0.0343 | Nc1ncnc2nc(-c3ccc(N4CCOCC4)nc3)cc(-c3cccc(Br)c3)c12 |

Reference: ChEMBL document CHEMBL3301361, “Experimental in vitro DMPK and physicochemical data on a set of publicly disclosed compounds”
